# Experiments:
# [1] = mouse, in vivo, ip
# [2] = test system: murine model of renal ischemia-reperfusion injury; design: species or system mice; details: mouse, in vivo
# [3] = test system: rat model of myocardial ischemia-reperfusion injury (MIRI); details: in vivo
# [4] = test system: rat vascular ring system precontracted with norepinephrine
substance,measurement,setting,value
"2-cyano-1-(1-hydroxy-2,2,5,5-tetramethylpyrrolidin-3-yl)-3-(pyridin-3-yl)guanidine [compound 2]",effect on blood glucose levels compared with saline vehicle group,[1],did not exhibit any significant effect
same,elevation in plasma blood urea nitrogen (BUN),[2],profoundly attenuated
same,elevation in plasma creatinine,[2],profoundly attenuated
same,elevation in renal myeloperoxidase (MPO),[2],profoundly attenuated
same,protection against severe renal tubular necrosis (histologic studies),[2],near total protection
same,"histologic features of injury (myocyte necrosis, edema, neutrophil infiltration)",[3],profoundly attenuated virtually all histologic features of injury
same,mean arterial pressure (systemic hypotension),[3],did not produce systemic hypotension
same,myocardial myeloperoxidase (MPO),[3],significantly reduced
same,tissue infarction (infarct size),[3],significantly reduced
same,ED50 (ex vivo vasodilator potency) compared to pinacidil,[4],one log greater than that of pinacidil

# From patent publication US9522903B2 (priority 2010, dated 2016)
